Consider four molecules from paper PMC11345828 (Journal of Medicinal Chemistry, 2024).

In general, GI50 refers to the concentration giving 50% growth inhibition. As a reminder, the AUC is the area under the concentration-time curve, a measure of exposure. Read a high AUC as more exposure. As usually defined, the Ki is a dissociation constant, usually derived from enzyme kinetics or from competition with a known ligand. Read a high Ki as lower affinity. What is called solubility is the dissolved amount per volume that the medium holds. Low readings indicate a poorly soluble substance, high ones a readily soluble substance. Usually Vd stands for a proportionality between amount in the body and measured concentration, not a real space. Lower therefore signals little distribution into tissue. Broadly, the clearance is the rate of elimination divided by the concentration. A high value points to efficient removal. Usually half-life stands for the time needed for the level to fall by half in the phase considered. High values mean slow decline, low ones rapid decline. In general, fraction unbound refers to free concentration divided by total concentration. Read a high fraction unbound as weak binding.

In brackets after ≈: the same amount, converted by molar mass.

For data set [1] the following is noted: mouse, in vivo; cited from earlier work.
The test system of another data set is A427 cells. The data set can be described thus: cells. The settings on record: Homo sapiens, A-427, read-out: A427 GI50.
Data set [2] concerns A427 cell line-derived NSCLC xenograft. Kind of data set: A427 NSCLC subcutaneous xenograft model. The data set is classed as in vivo, mouse. The procedure:
(§1) After fixation, tumor samples were embedded in paraffin blocks. Two-μm thick sections of each FFPE-block were prepared on a microtome, placed on glass slides and dewaxed. H&E staining was performed using Papanicolaous Solution 1a Harris′ Hematoxylin solution (Merck) and Shandon Eosin Y aqueous (Thermo) on the Gemini stainer (Thermo). […] Analysis was performed using HALO image analysis software 2.1 (Indica Laboratories). Quantification of Ki67 positivity was performed using multiplex IHC module with integrated AI based nucleus detection and a threshold set for positive nuclei was used. Viable tumor area was calculated from H&E staining using AI based classifier Densenet V2.
(§2) Female BomTac:NMRI-Foxn1nu mice and CB17/Icr-Prkdc(scid)/IcrCrl and were obtained from Taconic Denmark at an age of 6–8 weeks. After arrival of the local animal facility at Boehringer Ingelheim RCV GmbH & Co KG mice were allowed to adjust to housing conditions at least for 5 days before the start of the experiment. Mice were group-housed under pathogen-free and controlled environmental conditions and handled according to the institutional, governmental and European Union guidelines (Austrian Animal Protection Laws, GV-SOLAS and FELASA guidelines). Animal studies were approved by the internal ethics committee and the local governmental committee. To establish subcutaneous tumors mice were injected with 5 × 10^6 A427cells in Matrigel (CB17/Icr-Prkdc(scid)/IcrCrl), 1 × 10^6 NCI-H1048 cells in Matrigel (BomTac:NMRI-Foxn1nu and 5 × 10^6 NCI-H929 cells in Matrigel (CB17/Icr-Prkdc(scid)/IcrCrl). Tumor diameters were measured with a caliper three times a week. The volume of each tumor [in mm^3] was calculated according to the formula “tumor volume = length × diameter^2 × π/6.” To monitor side effects of treatment, mice were inspected daily for abnormalities and body weight was determined three times per week. Animals were sacrificed when the tumors reached a size of 1500 mm^3. […] Tumors were reported as regressing when the tumor volume at a given day was below the tumor volume at treatment start.

Data set [3] in a line: A427 NSCLC subcutaneous xenograft model. It is filed as in vivo, mouse. The settings on record: female, CB17/Icr-Prkdc(scid)/IcrCrl, mouse, in vivo, single agent. The procedure:
as §1, §2

A further data set relates to NCI-H1048 cells. Kind of data set: cells. The settings on record: Homo sapiens, NCI-H1048, read-out: NCI-H1048 GI50.
A further data set relates to NCI-H1048 SCLC xenograft. The settings on record: topotecan at 2.5 mg/kg q3/4d.
Data set [4] is described as follows: Metabolic stability in hepatocytes, minipig. It is filed as in vitro ADME. The settings on record: incubated with 50% of human serum.
For a further data set, the target named is Bcl-XL (Homo sapiens, UniProt Q07817). The data set can be described thus: FPA assay, Bcl-XL. The data set is classed as binding.
Chain of Bcl-XL (Q07817 whole entry, species assumed): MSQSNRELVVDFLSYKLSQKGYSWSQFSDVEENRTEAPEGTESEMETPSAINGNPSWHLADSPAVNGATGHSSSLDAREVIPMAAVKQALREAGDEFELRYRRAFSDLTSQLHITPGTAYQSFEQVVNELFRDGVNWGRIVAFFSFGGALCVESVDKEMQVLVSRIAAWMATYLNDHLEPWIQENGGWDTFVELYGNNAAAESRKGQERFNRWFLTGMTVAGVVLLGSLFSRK
The nature of data set [5]: Metabolic stability in hepatocytes, mouse. It is filed as in vitro ADME. The settings on record: incubated with 50% of human serum.
Data set [6] in a line: Metabolic stability in hepatocytes, rat. The data set is classed as in vitro ADME. The settings on record: incubated with 50% of human serum.
Another data set in a line: Aqueous solubility. It is filed as physicochemical. The settings on record: aqueous solution; at pH 7.8.
Another data set deals with OATP1B1/ABCC2. The data set can be described thus: Transporter substrate assessment. It is filed as in vitro ADME.
The nature of data set [7]: Metabolic stability in hepatocytes, dog. The data set is classed as in vitro ADME. The settings on record: incubated with 50% of human serum.
A short description of data set [8]: Relative plasma protein binding by shift in EC50 in a caspase induction assay, dog. The data set is classed as in vitro ADME. The settings on record: dog vs human.
The target in another data set is Bcl-2 (Homo sapiens, UniProt P10415). The data set can be described thus: FPA assay, Bcl-2. The data set is classed as binding.
Chain of Bcl-2 (P10415 whole entry, species assumed): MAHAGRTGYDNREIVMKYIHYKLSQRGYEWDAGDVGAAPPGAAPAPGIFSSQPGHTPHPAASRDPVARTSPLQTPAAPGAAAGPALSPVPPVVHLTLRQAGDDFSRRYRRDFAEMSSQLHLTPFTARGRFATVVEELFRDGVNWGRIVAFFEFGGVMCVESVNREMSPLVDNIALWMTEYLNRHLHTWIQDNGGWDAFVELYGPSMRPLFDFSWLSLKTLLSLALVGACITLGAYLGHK
A short description of data set [9]: Relative plasma protein binding by shift in EC50 in a caspase induction assay, minipig. It is filed as in vitro ADME. The settings on record: minipig vs human.
A short description of another data set: Plasma protein binding. The settings on record: above the limit of quantification of the assay. The data set is classed as in vitro ADME.
Data set [10] in a line: Metabolic stability in hepatocytes, human. The settings on record: incubated with 50% of human serum. The data set is classed as in vitro ADME.
Data set [11] relates to NCI-H929 cell line-derived MM xenograft. The data set can be described thus: NCI-H929 subcutaneous multiple myeloma xenograft model. It is filed as in vivo, mouse. The settings on record: 60 and 80 mg/kg, single dose IV. How it is done:
(§3) Caspase-Glo 3/7 Assay (PROMEGA #G8090) was performed according to manufacturer’s instructions using 200 ng of sample lysate in a total volume of 100 μL per well. 100 μL of the GLO reagent were added, mixed, and incubated for 90 min at room temperature. The plate was measured on an EnSpireTM Plate reader (luminescence, 0.1s).
as §2

Assay in data set [12]: as above
It is filed as in vivo, mouse. The settings on record: female, CB17/Icr-Prkdc(scid)/IcrCrl, mouse, in vivo, single dose IV, NCI-H929 xenograft study. How it is done:
as §3, §2

A short description of the next data set: Excretion study in rat. It is filed as in vivo.
The next data set can be described thus: Dog IV PK. The settings on record: dosed at 0.5 mg/kg.
Data set [13] in a line: Relative plasma protein binding by shift in EC50 in a caspase induction assay, rat. It is filed as in vitro ADME. The settings on record: rat vs human.
Setting [14] is: docetaxel at 10 mg/kg q7d, single agent.

Method for A427 cells: (§4) NCI-H1048 were cultured in custom medium prepared by PanBioTech containing DMEM/F12 + 5% fetal calf serum, 0.005 mg/mL insulin, 0.01 mg/mL transferrin, 30 nM sodium selenite, 10 nM hydrocortisone, 10 nM β-estradiol and 4.5 mM 2 mM L-glutamine. […] All cell lines were cultured at 37 °C with 5% CO2 in a humidified incubator and have been regularly tested negatively for mycoplasm contamination.
(§5) Suspension cells were plated immediately before compound addition. Adherent cell lines were incubated overnight at 37 °C in a tissue culture incubator prior to compound addition. Compounds were added in triplicates using an HP D300e Digital Dispenser (Hewlett-Packard) or manually at the concentrations indicated and total volumes were normalized using dimethyl sulfoxide (DMSO) backfill, with final DMSO concentration of 0.5%. Control wells were treated with DMSO only.
Method for Dog IV PK: (§6) For PK analysis, mice and dogs were administered intravenously with compound formulated either in 10% ethanol and 10% Cremophor EL for mice or in 50% ethanol and 50% PEG500 for dogs. Plasma samples were obtained at predefined time points and compound concentrations in plasma were measured by quantitative HPLC-MS/MS using an internal standard. Calibration and quality control samples were prepared using blank plasma from untreated animals. Samples were precipitated with acetonitrile and injected into a HPLC system (Agilent 1200). […] The HPLC was interfaced by ESI operated in positive ionization mode to a triple quadrupole mass spectrometer (6500+ Triple Quad System, SCIEX) operated in multiple reaction monitoring mode. Chromatograms were analyzed with Analyst (SCIEX) and pharmacokinetic parameters were calculated by noncompartmental analysis using proprietary software.
Method for Mouse IV PK: as §6
Method for NCI-H1048 SCLC xenograft: Female BomTac:NMRI-Foxn1nu mice and CB17/Icr-Prkdc(scid)/IcrCrl and were obtained from Taconic Denmark at an age of 6–8 weeks. After arrival of the local animal facility at Boehringer Ingelheim RCV GmbH & Co KG mice were allowed to adjust to housing conditions at least for 5 days before the start of the experiment. […] To establish subcutaneous tumors mice were injected with 5 × 10^6 A427cells in Matrigel (CB17/Icr-Prkdc(scid)/IcrCrl), 1 × 10^6 NCI-H1048 cells in Matrigel (BomTac:NMRI-Foxn1nu and 5 × 10^6 NCI-H929 cells in Matrigel (CB17/Icr-Prkdc(scid)/IcrCrl). Tumor diameters were measured with a caliper three times a week. The volume of each tumor [in mm^3] was calculated according to the formula “tumor volume = length × diameter^2 × π/6.” To monitor side effects of treatment, mice were inspected daily for abnormalities and body weight was determined three times per week. Animals were sacrificed when the tumors reached a size of 1500 mm^3. […] Tumors were reported as regressing when the tumor volume at a given day was below the tumor volume at treatment start.
Method for NCI-H1048 cells: as §4, §5

On to `Cc1c(-c2c(-c3ccc(F)o3)sc3ncnc(O[C@H](Cc4ccccc4OCc4ccnn4CC(F)(F)F)C(=O)O)c23)ccc(OCCN2CCN(C)CC2)c1Cl` [Compound S63845], for which the “maximum tolerated dose lower than in wild-type mice” value in [1] was around 3 fold.

As for `CC(=O)O[C@@]12CO[C@@H]1C[C@H](O)[C@@]1(C)C(=O)[C@H](O)C3=C(C)[C@@H](OC(=O)[C@H](O)[C@@H](NC(=O)OC(C)(C)C)c4ccccc4)C[C@@](O)([C@@H](OC(=O)c4ccccc4)[C@H]21)C3(C)C` [Docetaxel, docetaxel], the GI50 in the data set on A427 cells stood at 4.4 µM. Further, in data set [2] (setting [14]), the “TGI d21” value is reported as 112% and the “Tumor regressions d21” value is 8 x/8. Besides, in [2] (docetaxel at 10 mg/kg q7d alone), the “tumor outgrowth began around day after treatment start” value is around 15 days. The molecule further gave an AUC in data set [3] (docetaxel at 10 mg/kg q7d) of 15.8 µM·h.

For the molecule `CC[C@@]1(O)C(=O)OCc2c1cc1n(c2=O)Cc2cc3c(CN(C)C)c(O)ccc3nc2-1` [Topotecan, topotecan], the GI50 with NCI-H1048 cells turned out to be 0.014 µM. Moreover, in the data set with NCI-H1048 SCLC xenograft, the “TGI d16” value was 94% and the “Tumor regression d16” value was 1 x/8.

Consider `COc1c(OCC2CCOCC2)cc(N2C[C@@H](C)n3c(c(CCCOc4cc(C)c(Cl)c(C)c4)c4ccc(Cl)c(-c5c(C)nc(C)nc5C)c43)C2=O)c2c1cc(C(=O)O)n2C` [Compound 26, (R)-7-(7-Chloro-10-(3-(4-chloro-3,5-dimethylphenoxy)propyl)-4-methyl-1-oxo-6-(2,4,6-trimethylpyrimidin-5-yl)-3,4-dihydropyrazino[1,2-a]indol-2(1H)-yl)-4-methoxy-1-methyl-5-((tetrahydro-2H-pyran-4-yl)methoxy)-1H-indole-2-carboxylic Acid], for which the “metabolic stability in hepatocytes” value in data set [4] is listed as 35 % Qh; in data set [5] it was 40 % Qh; in data set [6], 22 % Qh; in data set [7], 19 % Qh; in [10], 12 % Qh. Besides, the Ki at Bcl-XL was 36 µM; on Bcl-2, 1.8 µM. The same molecule came in with a solubility in “Aqueous solubility” of 15 mg/mL (≈ 17.3 mM). Besides, the “substrate of OATP1B1/ABCC2” value in the data set with OATP1B1/ABCC2 is “substrate”. For the same molecule, the “plasma protein binding lower than in human” value in [8] and in data set [9] was around 2 fold each time. Further, the CL in “Mouse IV PK” (mouse IV, dosed at 25 mg/kg) worked out at 2.2 mL/min/kg; in “Dog IV PK”, 5.2 mL/min/kg. Further, in “Mouse IV PK” (mouse IV, relative to compound 20), the “reduction in clearance from compound 20” value is reported as 20 fold. In addition, the Vd in “Mouse IV PK” (mouse, plasma, iv, 25 mg/kg) was below 0.1 L/kg. For the same molecule, the clearance in “Mouse IV PK” (mouse, plasma, iv, 25 mg/kg) was 2.2 mL/min/kg. In the data set “Mouse IV PK” (mouse, plasma, iv, 25 mg/kg), this molecule showed a half-life of 3.7 h. Further, in the data set “Plasma protein binding”, the fraction unbound was below 0.002. Moreover, the “change in the median weight of the mice” value in [11] is listed as “no significant change”. The AUC in data set [12] (60 mg/kg) worked out at 442 µM·h; in data set [12] (80 mg/kg) it was 635 µM·h; in data set [3] (26 at 60 mg/kg q7d IV), 552 µM·h. Moreover, the “biliary clearance as share of the total clearance” value in “Excretion study in rat” was 60–75%. Besides, the AUC/Dose in the data set “Dog IV PK” is reported as 3860 nM*h/mpk. In addition, the “CL (% hep blood flow)” value in “Dog IV PK” worked out at 17 % hep blood flow. Also, the “plasma protein binding lower than human” value in data set [13] amounted to 3 fold.
